What all share (assay): Kinase profiling in a biochemical assay panel (mobility shift assays and ELISA), %-inhibition at 1 μM; selectivity entropy
In general terms: An ELISA detects its analyte on a solid surface through an enzyme-linked reagent.

Experiment [1] concerns the target panel of more than 300 wild-type and mutant kinases (313 kinase panel) (Homo sapiens, UniProt Q9UK32). The conditions noted are these: kinase RSK4; 1 μM.
Experiment [2] has as its target panel of more than 300 wild-type and mutant kinases (313 kinase panel) (Homo sapiens, UniProt O95819).
Experiment [3] addresses T1, panel of more than 300 wild-type and mutant kinases (313 kinase panel) (Homo sapiens, UniProt O15146).
T1 sequence (O15146 24-869): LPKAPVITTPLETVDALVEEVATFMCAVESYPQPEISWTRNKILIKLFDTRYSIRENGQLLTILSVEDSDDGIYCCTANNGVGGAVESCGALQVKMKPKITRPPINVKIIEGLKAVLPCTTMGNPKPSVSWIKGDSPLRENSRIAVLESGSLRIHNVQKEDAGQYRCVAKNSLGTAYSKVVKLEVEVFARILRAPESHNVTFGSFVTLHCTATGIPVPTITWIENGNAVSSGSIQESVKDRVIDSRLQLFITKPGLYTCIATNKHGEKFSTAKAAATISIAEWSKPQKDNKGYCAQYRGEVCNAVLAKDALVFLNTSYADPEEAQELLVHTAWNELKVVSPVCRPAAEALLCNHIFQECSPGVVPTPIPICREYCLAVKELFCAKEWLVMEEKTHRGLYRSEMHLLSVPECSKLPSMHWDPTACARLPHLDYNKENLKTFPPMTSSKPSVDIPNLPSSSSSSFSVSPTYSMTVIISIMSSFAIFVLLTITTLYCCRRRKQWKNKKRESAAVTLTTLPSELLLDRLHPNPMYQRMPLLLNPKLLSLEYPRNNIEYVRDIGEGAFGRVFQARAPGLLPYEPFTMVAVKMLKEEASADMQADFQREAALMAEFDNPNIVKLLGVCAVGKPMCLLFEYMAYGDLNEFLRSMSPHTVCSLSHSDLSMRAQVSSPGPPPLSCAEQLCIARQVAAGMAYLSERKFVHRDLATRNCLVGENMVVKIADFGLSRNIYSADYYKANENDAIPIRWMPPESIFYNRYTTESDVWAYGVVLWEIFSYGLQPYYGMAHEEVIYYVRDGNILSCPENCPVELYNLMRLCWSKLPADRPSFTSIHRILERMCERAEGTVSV

In experiment [4] the target is panel of more than 300 wild-type and mutant kinases (313 kinase panel) (Homo sapiens, UniProt O75676). To be noted: kinase MSK2; 1 μM.
Experiment [5] has as its target panel of more than 300 wild-type and mutant kinases (313 kinase panel) (Homo sapiens, UniProt Q13882). The conditions noted are these: kinase BRK; 1 μM compound.
Experiment [6] deals with panel of more than 300 wild-type and mutant kinases (313 kinase panel) (Homo sapiens, UniProt Q8N4C8). To be noted: kinase MINK; 1 μM.
For experiment [7], the target named is panel of more than 300 wild-type and mutant kinases (313 kinase panel) (Homo sapiens, UniProt P29317).
Experiment [8] addresses panel of more than 300 wild-type and mutant kinases (313 kinase panel) (Homo sapiens, UniProt P07947). The conditions noted are these: kinase YES; compound at 1 μM.
Experiment [9] addresses panel of more than 300 wild-type and mutant kinases (313 kinase panel) (Homo sapiens, UniProt P08581). The conditions noted are these: kinase MET; compound at 1 μM.
The target in experiment [10] is panel of more than 300 wild-type and mutant kinases (313 kinase panel) (Homo sapiens, UniProt Q9NYY3).
The target of experiment [11] is panel of more than 300 wild-type and mutant kinases (313 kinase panel) (Homo sapiens, UniProt P10721, D816V).
The target of experiment [12] is panel of more than 300 wild-type and mutant kinases (313 kinase panel) (Homo sapiens, UniProt P43405). The conditions noted are these: kinase SYK; 1 μM.
The target of experiment [13] is panel of more than 300 wild-type and mutant kinases (313 kinase panel) (Homo sapiens, UniProt P10721, V654A).
Experiment [14] has as its target panel of more than 300 wild-type and mutant kinases (313 kinase panel) (Homo sapiens, UniProt P49840). The conditions noted are these: kinase GSK3α; compound at 1 μM.

Consider `CO[C@H]1C[C@@H]2CC[C@@H](C)[C@@](O)(O2)C(=O)C(=O)N2CCCC[C@H]2C(=O)O[C@H]([C@H](C)C[C@@H]2CC[C@@H](OC(=O)C(C)(CO)CO)[C@H](OC)C2)CC(=O)[C@H](C)/C=C(\C)[C@@H](O)[C@@H](OC)C(=O)[C@H](C)C[C@H](C)/C=C/C=C/C=C/1C` [temsirolimus], for which the “%-inhibition of RSK4” value in experiment [1] is reported as -6%. The “%-inhibition of HGK” value in experiment [2] (kinase HGK, compound at 1 μM) was -0.299%. Besides, the “%-inhibition of MUSK” value in experiment [3] (kinase MUSK, 1 μM) is given as -9%. In addition, the “%-inhibition of MSK2” value in experiment [4] is -5%. Moreover, the “%-inhibition, BRK” value in [5] is listed as -6%. Besides, the “%-inhibition of MINK” value in experiment [6] is reported as -4%. Also, the “%-inhibition of EPHA2” value in [7] (kinase EPHA2, compound at 1 μM) is given as -5.58%. Further, the “%-inhibition of YES” value in [8] was -7%. In experiment [9], the “%-inhibition of MET” value is listed as -4.57%. The “%-inhibition of PLK2” value in [10] (kinase PLK2, 1 μM) was 0.568%. The “%-inhibition of KIT(D816V)” value in experiment [11] (kinase KIT(D816V), compound at 1 μM) is on record as -2.12%. In addition, in experiment [12], the “%-inhibition of SYK” value was -13%. Moreover, the “%-inhibition of KIT(V654A)” value in [13] (kinase KIT(V654A), compound at 1 μM) was -4.65%. The “%-inhibition of GSK3α” value in experiment [14] is reported as -14%.

With `Cc1cn(-c2cc(NC(=O)c3ccc(C)c(Nc4nccc(-c5cccnc5)n4)c3)cc(C(F)(F)F)c2)cn1` [nilotinib], the “%-inhibition of RSK4” value in experiment [1] is 11%. Also, in experiment [2] (1 µM), the “%-inhibition of HGK” value is given as 4%. Also, the “%-inhibition of MUSK” value in experiment [3] (1 µM) is given as 42%. For the same compound, the “%-inhibition of MSK2” value in [4] is 2.55%. Also, the “%-inhibition, BRK” value in experiment [5] is on record as 75%. The “%-inhibition of MINK” value in [6] was found to be 3%. In experiment [7] (1 µM), the “%-inhibition of EPHA2” value worked out at 95%. For the same compound, the “%-inhibition of YES” value in experiment [8] was determined as 44%. For the same compound, in experiment [9], the “%-inhibition of MET” value is listed as -9%. Moreover, the “%-inhibition of PLK2” value in [10] (1 µM) amounted to 6%. Moreover, the “%-inhibition of KIT(D816V)” value in [11] (1 µM) came to 43%. Further, in experiment [12], the “%-inhibition of SYK” value was determined as 54%. Also, the “%-inhibition of KIT(V654A)” value in experiment [13] (1 µM) worked out at 19%. Moreover, in [14], the “%-inhibition of GSK3α” value is -0.491%.

Values taken from article PMC3961306, “Comparison of the Cancer Gene Targeting and Biochemical Selectivities of All Targeted Kinase Inhibitors Approved for Clinical Use” (PLoS ONE, 2014).
